Data taken from the supplement of paper PMC10307832.

Tests used:
Assay in all cases: relative viability (nuclei count vs DMSO), 5 days (fraction); higher = more cells survive
[1] = compound: CC(O)(CS(=O)(=O)c1ccc(F)cc1)C(=O)Nc1ccc(C#N)c(C(F)(F)F)c1 [Bicalutamide] + N=C(N)NC(=N)NCCc1ccccc1 [Phenformin] (partner 250 µM)
Procedure, shortened: (§1)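 Cells from lung cancer lines were seeded into 1536-well plates and, one day later, dosed by pin tool. Treatments were either a single drug or a fixed dose of an anchor drug with five library-drug doses (not always all listed) in √10 steps. After 5 days, nuclei were stained in a one-step fixation (final 0.05% Triton X-100, 1% formaldehyde, 1 ug/ml Hoechst) and counted on 4× images, and relative viability is the treated-to-vehicle nuclei ratio, as the median of duplicate plates.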

[2] = compound: C(C(=O)C(=O)O)Br [Bromopyruvate] + CC(=O)Nc1cccc(-n2c(=O)n(C3CC3)c(=O)c3c(Nc4ccc(I)cc4F)n(C)c(=O)c(C)c32)c1 [Trametinib] (partner 0.02 µM)
Procedure, shortened: as §1

[3] = compound: C(C(=O)C(=O)O)Br [Bromopyruvate] + CS(=O)(=O)N1CCN(Cc2cc3nc(-c4cccc5[nH]ncc45)nc(N4CCOCC4)c3s2)CC1 [Pictilisib] (partner 1 µM)
Procedure, shortened: as §1

[4] = compound: C(C(=O)C(=O)O)Br [Bromopyruvate] + NC(=O)Nc1cc(-c2cccc(F)c2)sc1C(=O)N[C@H]1CCCNC1 [AZD7762] (partner 0.2 µM)
Procedure, shortened: as §1

Cell Line	relative viability ([1]; first compound 0.08 µM)	relative viability ([1]; first compound 0.8 µM)	relative viability ([1]; first compound 2.53 µM)	relative viability ([2]; first compound 1 µM)	relative viability ([2]; first compound 3.162 µM)	relative viability ([2]; first compound 10 µM)	relative viability ([2]; first compound 31.62 µM)	relative viability ([2]; first compound 100 µM)	relative viability ([3]; first compound 1 µM)	relative viability ([3]; first compound 3.162 µM)	relative viability ([3]; first compound 10 µM)	relative viability ([3]; first compound 31.62 µM)	relative viability ([3]; first compound 100 µM)	relative viability ([1]; first compound 0.253 µM)	relative viability ([4]; first compound 1 µM)	relative viability ([4]; first compound 3.162 µM)	relative viability ([4]; first compound 10 µM)	relative viability ([4]; first compound 31.62 µM)	relative viability ([4]; first compound 100 µM)
SW 1573	0.413	0.377	0.366	0.582	0.576	0.608	0.432	0.0469	0.463	0.438	0.46	0.521	0.303						
NCI-H522	0.659	0.622	0.661	0.697	0.671	0.778	0.92	0.757						0.649	0.874	0.861	0.821	1.05	0.755
NCI-H1299									0.779	0.811	0.809	0.664	0.799						
NCI-H1650	0.429	0.493	0.378	0.548	0.482	0.643	0.572	0.515	0.545	0.532	0.567	0.651	0.512	0.375					
NCI-H2023	0.447	0.456	0.454	0.55	0.483	0.517	0.562	0.482	0.236	0.237	0.221	0.209	0.25	0.315					
NCI-H1648				0.349	0.413	0.472	0.545	0.482							0.671	0.721	0.713	0.623	0.551
SK-MES-1	0.726	0.728	0.617	0.631	0.547	0.511	0.578	0.574	0.356	0.32	0.427	0.373	0.321	0.654					
NCI-H2342	0.641	0.702	0.608	0.757	0.912	0.779	0.696	0.736						0.466	0.397	0.436	0.451	0.47	0.481
SW 900	0.511	0.874	0.411	0.865	0.76	0.92	0.729	0.739						0.555	0.629	0.528	0.519	0.564	0.66
A549	0.247	0.181	0.254						0.479	0.629	0.489	0.494	0.6	0.11					
NCI-H520	0.707	0.61	0.366	0.653	0.716	0.755	0.637	0.646	0.264	0.34	0.337	0.293	0.317	0.421					
NCI-H1563	0.695	0.654	0.629						0.657	0.657	0.535	0.626	0.697	0.718					
ABC-1	0.26	0.253	0.212						0.573	0.881		0.849	0.686	0.229	0.532	0.995	0.951	0.834	0.734
